# Measured values published in patent US5709816A, “Singlet oxygen quenchers and external compositions containing the same” (Kao Corporation, priority 1899, dated 1998).
# Key:
# [1] = Quenching rate constant of singlet oxygen (Rose Bengal photosensitization, Stern-Volmer method); type: biochemical; details: kq; ethanol solution, 50 μM Rose Bengal; singlet oxygen lifetime taken as 10 μs
# Excerpt: Method for measuring the quenching rate constant of singlet oxygen:
# The apparatus used for measuring singlet oxygen included the following parts.
# (1) Light source: Xenon lamp (150 W) (Atago Bussan K.K.)
# (2) Filters on the excitation side: Water filter (optical path: 50 mm), Color glass filters (HA-15, HA-30, G-533, manufactured by Hoya K.K.)
# (3) Sample: Square quartz cell (2×10×50 mm)
# (4) Filters on the detection side: Color glass filter (IR-85, manufactured by Hoya K.K.), Interference filter (Nippon Shinku-Kogaku K.K.)
# (5) Spectrometer and detector: Spectrometer (HR-320, Jovin Yvon Co.), Germanium (Ge) detector (EO-817L, a type using liquid nitrogen as a coolant, North coast Scientic Corporation)
# (6) Amplifier: Light chopper (5584, NF Co.), Frequency filter (E-3201B, NF Co.), Super low noise amplifier (SA-200F3, NF Co.), Digital storage oscilloscope (2431L, SONY Tektronix Co.)
# (7) Recording section: Personal computer (PC-9801 BA, NEC Corporation), GP-IB interface
# (8) Oxygen concentration control unit: High-pressure oxygen cylinder
# Using this apparatus, light was irradiated onto a system which is known to produce singlet oxygen through photochemical sensitization. The wavelength of the light was within an appropriate absorption range of the photosensitizer employed. weak emission in the near infrared region, which is specific to singlet oxygen, was measured for its intensity I. Subsequently, the emission obtained when a test substance was added to the same system was measured. From the decrease in emission intensity I, the quenching rate constant of singlet oxygen of the test substance could be measured in accordance with the Stern-Volmer method. However, since some substances react with the photochemical sensitization system to cause errors in the measurements, the method described by R. H. Young et al., Photochem. Photobiol., vol. 17, p. 233 (1973) was applied to correct this contribution quenching.
# A 50 μM ethanol solution of Rose Bengal in a 400 μl square quartz cell was used as a test substance.
# First, the light within 490-590 nm, which is appropriate for the maximum absorption wavelength of Rose Bengal, was irradiated onto the cell containing the test substance.
# Similarly, another system was subjected to measurement in which a typical singlet oxygen quencher, β-carotene, sodium azide,or 1,4-diazabicyclo[2.2.2]octane, had been added.
# Measurement of the quenching rate constant of singlet oxygen: An ethanol solution of each of compounds obtained in the above-described Synthesis Examples and N-phenyldiethanolamine (compound (36)), with Rose Bengal, as a conventional photosensitizer, was used for the measurement of the quenching rate constants of singlet oxygen.
# First, emission intensity I of a mixture solution containing 50 μM of Rose Bengal and the above compounds were measured under saturated air conditions. The ratio IOair /Iair was calculated, wherein Iair represents the emission intensity measured for a solution with a test substance at a concentration of Cq (Iair), and Oair represents the emission intensity measured for a solution without test substance. Next, under saturated oxygen conditions, emission intensity was measured for a solution with a test substance at the same concentration Cq (I302). Using these emission intensities, the correction term Fair was obtained in accordance with the following equation.
# Interference attributed to the test substance with respect to the photosensitization reaction system was corrected by multiplying IOair /Iair by Fair.
# Using the following equation:
# (IOair /Iair)'=1+kq ·.tau.·Cq
# collagen = assay: Inhibition of protein denaturation (collagen crosslinking, porphyrin + UV); type: biochemical; details: 0.1 wt. % in ethanol; collagen 0.5 mg/ml, porphyrin 100 mM; UV-A/UV-B 3 J/cm^2; SDS-PAGE
# Experimental: Inhibition of protein denaturation
# An ethanol solution containing a test substance (0.1 wt. %) was added to a mixture of collagen (0.5 mg/ml) and 2 porphyrin (100 mM). A mixture of UV-A/UV-B (3 J/cm^2, measured at 365 nm) was irradiated onto the resultant mixture using a solar simulator. The irradiated mixture was applied to SDS-PAGE electrophoresis, and collagen crosslinking inhibition ratios were measured.
# [2] = tested on: skin of colored guinea pigs; assay: Inhibition of delayed darkening (UV-A/UV-B irradiation); type: in vivo; details: 7 wt. % in ethanol; UV-A/UV-B 50 J/cm^2; 14 days after irradiation; color difference meter
# Experimental: Inhibition of delayed darkening
# The hair of colored guinea pigs (8 week old, female) hair was removed, and an ethanol solution containing a test substance (7 wt. %) was applied to the skin. A mixture of UV- A/UV-B rays (50 J/cm^2, measured at 365 nm using a UV-radiometer UVR-305/365-D, Torex Co.) was irradiated onto the back of each guinea pig using a solar simulator. Fourteen days after irradiation, delayed darkening inhibition ratios were measured using a color difference meter (Model 1001P. Nippon Kogyo Co., Ltd.).
Compound,Extinction rate constant of singlet oxygen [1] [M⁻¹ s⁻¹],Protein denaturation inhibition ratio (collagen) [%],ΔΔL value [2]
"CCCCCCCCN(CC(O)CO)c1ccc(OC)cc1 (stereo not drawn) [Compound (35), N-(2,3-dihydroxypropyl)-N-octyl-p-anisidine]",2.2e+08,84,1.9
"COCC(O)CN(C)c1ccc(OC)cc1 (stereo not drawn) [Compound (1), N-(2-hydroxy-3-methoxypropyl)-N-methyl-p-anisidine]",2.2e+08,85,1.7
"CCCCN(CC(O)COC)c1ccc(C)c(C)c1 (stereo not drawn) [Compound (32), N-n-butyl-N-(2-hydroxy-3-methoxypropyl)-3,4-xylidine]",1.6e+08,88,1.3
"CCCCN(CC(O)CO)c1ccc(C)c(C)c1 (stereo not drawn) [Compound (34), N-n-butyl-N-(2,3-dihydroxypropyl)-3,4-xylidine]",1.7e+08,61,1.3
"COCC(O)CN(CC(O)COC)c1ccc(C)cc1 (stereo not drawn) [Compound (4), N,N-bis(2-hydroxy-3-methoxypropyl)-p-toluidine]",2.1e+08,87,1.8
"CCCCN(CC(O)COC)c1ccc(OC)cc1 (stereo not drawn) [Compound (2), N-n-butyl-N-(2-hydroxy-3-methoxypropyl)-p-anisidine]",2e+08,62,1.1
"CCCCN(CC(O)COC)c1ccccc1 (stereo not drawn) [Compound (6), N-n-butyl-N-(2-hydroxy-3-methoxypropyl)aniline]",1.1e+08,53,1.1
"CCCCCCCCN(CC(O)COC)c1ccc(OC)cc1 (stereo not drawn) [Compound (3), N-(2-hydroxy-3-methoxypropyl)-N-n-octyl-p-anisidine]",2.3e+08,93,2.0
"CCCCN(CC(O)COC)c1ccc(C)cc1 (stereo not drawn) [Compound (5), N-n-butyl-N-(2-hydroxy-3-methoxypropyl)-p-toluidine]",1.5e+08,81,1.5
"Cc1ccc(N(C)CC(O)CO)cc1 (stereo not drawn) [Compound (33), N-(2,3-dihydroxypropyl)-N-methyl-p-toluidine]",1.4e+08,44,1.1
